Results published in patent publication US20240218022A1, “ANTI-VISTA MACROCYCLIC PEPTIDES AND COMPOSITIONS” (BRISTOL-MYERS SQUIBB COMPANY, priority 2022, published 2024).
Where two headings read alike, the source gives them in different places. Starred links: 1 amine or outer side, 2 acyl side, 3 side chain; linkers in the order of their positions; H or OH if unused. Positions of bridges follow the written chain, without caps; N, C: chain ends. Non-standard residues stand in square brackets, D forms with d. Residues, ends and D or L forms follow the SMILES beside them. Phe(4-COOH) = N[C@@H](Cc1ccc(C(=O)O)cc1)C(=O)O; βAsp = O=C(O)[C@H](CC(=O)[*:2])N[*:1]; Cit = NC(=O)NCCC[C@H](N)C(=O)O; Ahp(2) = CCCCC[C@H](N)C(=O)O; NMeNle = CCCC[C@H](NC)C(=O)O; Tle = CC(C)(C)[C@H](N)C(=O)O; NHexGly = CCCCCCNCC(=O)O; Nle = CCCC[C@H](N)C(=O)O; Aun = NCCCCCCCCCCC(=O)O; AEEA = NCCOCCOCC(=O)O

Target: T1, mouse VISTA (mVISTA) (Mus musculus, UniProt Q9D659)
T1 construct: expressed in transfected cells; host or cells: Human embryonic kidney 293T cells
T1 sequence (Q9D659 33-308): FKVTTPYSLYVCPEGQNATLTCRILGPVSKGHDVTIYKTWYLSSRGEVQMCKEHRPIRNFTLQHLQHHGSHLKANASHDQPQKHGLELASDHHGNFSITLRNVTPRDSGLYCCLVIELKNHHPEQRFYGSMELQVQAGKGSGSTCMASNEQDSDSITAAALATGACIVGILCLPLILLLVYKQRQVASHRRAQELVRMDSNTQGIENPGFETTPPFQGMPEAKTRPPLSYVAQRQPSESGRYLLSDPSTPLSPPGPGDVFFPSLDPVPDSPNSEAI
Assay: Cell-Based Binding High-Content Assay For mVISTA (HC CBA mVISTA)
Method in brief: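 mVISTA-293T, 4,000 cells/well; cpd ± washout step; biotin-peptide 2 nM final, 30 min RT; SA-Alexa 647 30 min; formaldehyde/Hoechst fix; HCS imaging; 4PL IC50.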

For `CCCCCCN1CC(=O)N[C@@H](Cc2ccc(O)cc2)C(=O)N[C@@H](CCCC)C(=O)N[C@@H](CC(=O)O)C(=O)N[C@@H](CCCNC(=N)N)C(=O)N[C@@H](CC(C)C)C(=O)N[C@@H](CCCCC)C(=O)N2CCC[C@H]2C(=O)N[C@@H](C(C)C)C(=O)N[C@@H](CC(N)=O)C(=O)N[C@H](C(=O)NCCOCCOCC(=O)N[C@@H](CC(=O)O)C(=O)NCCOCCOCC(=O)NCCCCCCCCCCC(=O)O)CSCC(=O)N[C@@H](Cc2ccccc2)C(=O)N[C@@H](Cc2ccc(O)cc2)C(=O)N[C@@H](CC(=O)O)C1=O` (stereo in doubt) [compound 2295], the IC50 (cell-based binding high-content assay, read-out: HC CBA miPrISTA IC50) was 33.1 nM.
`CCCCCCN1CC(=O)N[C@@H](Cc2ccc(O)cc2)C(=O)N[C@@H](CCCC)C(=O)N[C@@H](CC(N)=O)C(=O)N[C@@H](CCCNC(N)=O)C(=O)N(C)[C@@H](CCCC)C(=O)N[C@@H](CCCCC)C(=O)N2CCC[C@H]2C(=O)N[C@@H](C(C)C)C(=O)N[C@@H](CC(=O)O)C(=O)N[C@H](C(=O)NCC(=O)O)CSCC(=O)N[C@@H](Cc2ccccc2)C(=O)N[C@@H](Cc2ccc(O)cc2)C(=O)N[C@@H](CC(=O)O)C1=O` [Example 1082] ({CH2CO}-FYD[NHexGly]Y[Nle]N[Cit][NMeNle][Ahp(2)]PVDCG-OH; thioether N-14) showed an IC50 (293T cells expressing mouse VISTA, competition with biotinylated peptide (2 nM), read-out: CBA mVISTA IC50) of 8.1 nM.
`CCCCCCN1CC(=O)N[C@@H](Cc2ccc(O)cc2)C(=O)N[C@@H](CC(C)C)C(=O)N[C@@H](CC(N)=O)C(=O)N[C@@H](CCCNC(=N)N)C(=O)N(C)[C@@H](CCCC)C(=O)N[C@@H](CCCCC)C(=O)N2CCC[C@H]2C(=O)N[C@@H](C(C)(C)C)C(=O)N[C@@H](CO)C(=O)N[C@H](C(=O)N[C@@H](CC(=O)NCCOCCOCC(=O)N[C@@H](CC(=O)O)C(=O)NCCOCCOCC(=O)NCCCCCCCCCCC(=O)O)C(=O)O)CSCC(=O)N[C@@H](Cc2ccc(C(=O)O)cc2)C(=O)N[C@@H](Cc2ccc(O)cc2)C(=O)N[C@@H](CC(=O)O)C1=O` [compound 2050] ({CH2CO}-[Phe(4-COOH)]YD[NHexGly]YLNR[NMeNle][Ahp(2)]P[Tle]SC[βAsp][AEEA]D[AEEA][Aun]-OH; thioether N-14) was tested, and the IC50 (cell-based binding high-content assay, mVISTA, read-out: HC CBA miPr ISTA IC50) was 24.1 nM.
